The results in this text go back to ChEMBL document CHEMBL5252520, “Inhibition of phospho-MurNAc-pentapeptide translocase (MraY) by nucleoside natural product antibiotics, bacteriophage ϕX174 lysis protein E, and cationic antibacterial peptides” (Bioorg Med Chem, 2016).

In brackets after ≈: the same amount, converted by molar mass. Residues, ends and D or L forms follow the SMILES beside them.

Assay [1] in a line: Inhibition of bacterial MraY. More on the design: species or system Bacteria.
The subject of the next assay is Pseudomonas aeruginosa. The experiment in a line: Antibacterial activity against Pseudomonas aeruginosa H103 assessed as reduction in bacterial growth. The format is functional.
The test system of assay [2] is Escherichia coli. Description: Antibacterial activity against Escherichia coli assessed as reduction in bacterial growth. The format is functional.
In assay [3] the test system is Escherichia coli. The experiment in a line: Antibacterial activity against Escherichia coli assessed as inhibition of bacterial growth. The format is functional.
Assay [4] concerns the target T1, Decaprenyl-phosphate N-acetylglucosaminephosphotransferase (Mycolicibacterium smegmatis (strain ATCC 700084 / mc(2)155) (Mycobacteriumsmegmatis), UniProt A0R211).
T1 sequence (A0R211 whole entry): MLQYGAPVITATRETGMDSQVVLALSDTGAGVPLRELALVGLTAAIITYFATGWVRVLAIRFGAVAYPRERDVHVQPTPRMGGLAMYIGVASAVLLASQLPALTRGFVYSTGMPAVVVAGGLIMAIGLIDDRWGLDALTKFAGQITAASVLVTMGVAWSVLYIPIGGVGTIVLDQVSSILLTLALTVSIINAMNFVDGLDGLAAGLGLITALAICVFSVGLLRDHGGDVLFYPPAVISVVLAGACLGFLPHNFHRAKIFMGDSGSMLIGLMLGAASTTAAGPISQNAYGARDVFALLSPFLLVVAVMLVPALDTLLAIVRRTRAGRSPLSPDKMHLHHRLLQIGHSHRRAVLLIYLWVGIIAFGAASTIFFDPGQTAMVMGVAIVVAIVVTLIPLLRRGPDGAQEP
Description: Inhibition of Mycobacterium smegmatis ATCC 607 WecA.

The nature of assay [5]: Inhibition of Bacillus subtilis TagO.
The nature of assay [6]: Inhibition of Campylobacter jejuni PgIC expressed in Escherichia coli by affinity chromatography.
Assay [7] has as its target T2, Phospho-N-acetylmuramoyl-pentapeptide-transferase (Bacillus subtilis (strain 168), UniProt Q03521).
T2 sequence (Q03521 whole entry): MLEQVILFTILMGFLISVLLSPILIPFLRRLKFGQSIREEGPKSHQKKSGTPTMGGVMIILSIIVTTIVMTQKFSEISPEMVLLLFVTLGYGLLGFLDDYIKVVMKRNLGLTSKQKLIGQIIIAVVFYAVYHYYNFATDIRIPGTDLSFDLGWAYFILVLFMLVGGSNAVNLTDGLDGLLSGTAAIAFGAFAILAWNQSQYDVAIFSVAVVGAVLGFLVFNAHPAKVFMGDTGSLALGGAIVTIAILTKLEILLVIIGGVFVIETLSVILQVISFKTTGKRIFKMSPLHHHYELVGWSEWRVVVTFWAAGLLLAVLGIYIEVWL
The experiment in a line: Inhibition of Bacillus subtilis MraY.

The target of assay [8] is T3, Phospho-N-acetylmuramoyl-pentapeptide-transferase (Escherichia coli, UniProt E2QF15).
T3 sequence (E2QF15 whole entry): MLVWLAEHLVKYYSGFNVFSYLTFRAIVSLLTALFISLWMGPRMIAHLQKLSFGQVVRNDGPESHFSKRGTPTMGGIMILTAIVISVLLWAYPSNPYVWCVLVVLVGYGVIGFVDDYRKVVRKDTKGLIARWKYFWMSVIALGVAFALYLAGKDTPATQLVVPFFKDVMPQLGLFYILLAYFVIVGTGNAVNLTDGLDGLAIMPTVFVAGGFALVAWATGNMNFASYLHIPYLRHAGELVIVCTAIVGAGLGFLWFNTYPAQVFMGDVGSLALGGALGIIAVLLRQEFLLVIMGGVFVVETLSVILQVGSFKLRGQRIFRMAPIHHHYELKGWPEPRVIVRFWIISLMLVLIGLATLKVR
The experiment in a line: Inhibition of recombinant Escherichia coli MraY by fluorescence based analysis.

One may read the IC50 as the point on the concentration scale where inhibition reaches its midpoint. In assay [1], `CC[C@H](C)[C@H](N)C(=O)N[C@@H](CC(C)C)C(=O)N1CCC[C@H]1C(=O)N[C@@H](Cc1c[nH]c2ccccc12)C(=O)N[C@@H](CCCCN)C(=O)N[C@@H](Cc1c[nH]c2ccccc12)C(=O)N1CCC[C@H]1C(=O)N[C@@H](Cc1c[nH]c2ccccc12)C(=O)N[C@@H](Cc1c[nH]c2ccccc12)C(=O)N1CCC[C@H]1C(=O)N[C@@H](Cc1c[nH]c2ccccc12)C(=O)N[C@@H](CCCN=C(N)N)C(=O)N[C@@H](CCCN=C(N)N)C(N)=O` yielded an IC50 of 90 µM.

As a reminder, the MIC is the lowest concentration found to suppress growth. Consider `CC[C@H](C)[C@H](NC(=O)[C@H](CCCCN)NC(=O)[C@H](CCCCN)NC(=O)[C@H](Cc1ccccc1)NC(=O)[C@H](CC(C)C)NC(=O)[C@H](CCCCN)NC(=O)[C@H](Cc1c[nH]c2ccccc12)NC(=O)[C@@H](N)CCCCN)C(=O)N[C@@H](CCC(=O)O)C(=O)N[C@@H](CCCCN)C(=O)O` (H-KWKLFKKIEK-OH), for which the results for the MIC with Pseudomonas aeruginosa and in the assay on Escherichia coli [2] were 5 µg/mL (≈ 3.71 µM) and 1 µg/mL (≈ 0.742 µM), respectively.

In the case of `CC(C)[C@H](NC(=O)[C@@H](NC(=O)[C@H](Cc1c[nH]c2ccccc12)NC(=O)[C@H](CCCNC(=N)N)NC(=O)[C@H](Cc1c[nH]c2ccccc12)NC(=O)[C@H](Cc1c[nH]c2ccccc12)NC(=O)[C@H](CCCCN)NC(=O)[C@H](Cc1c[nH]c2ccccc12)NC(=O)[C@H](Cc1c[nH]c2ccccc12)NC(=O)[C@H](CCCCN)NC(=O)CN)[C@@H](C)O)C(=O)N1CCC[C@H]1C(=O)N[C@@H](Cc1ccccc1)C(=O)O` (H-GKWWKWWRWTVPF-OH), in the assay on Escherichia coli [2], the MIC stood at 7 µg/mL (≈ 3.76 µM).

In assay [1], `CC(C)C[C@H](NC(=O)CNC(=O)CNC(=O)[C@@H](N)CCCNC(=N)N)C(=O)N[C@@H](Cc1c[nH]c2ccccc12)C(=O)O` (H-RGGLW-OH) showed a 50% inhibitory concentration (IC50) of 210 µM.

Turning to `CC[C@H](C)[C@H](NC(=O)[C@H](CCCNC(=N)N)NC(=O)[C@H](Cc1c[nH]c2ccccc12)NC(=O)[C@@H](NC(=O)[C@@H](NC(=O)[C@H](CC(C)C)NC(=O)[C@H](Cc1c[nH]c2ccccc12)NC(=O)[C@H](CCCNC(=N)N)NC(=O)[C@H](CCC(N)=O)NC(=O)[C@@H](N)C(C)C)[C@@H](C)CC)C(C)C)C(=O)N[C@@H](CCCNC(=N)N)C(=O)N[C@@H](CCCCN)C(=O)O` (H-VQRWLIVWRIRK-OH), the MIC with Escherichia coli [3] came to 8 µg/mL (≈ 4.84 µM). It took 75 µM to reach half-maximal inhibition in assay [1] (IC50).

Take `CCCCc1ccc(NC(=O)C2=CCN(C)[C@@H]([C@H](O[C@@H]3O[C@H](CN)[C@@H](O)[C@H]3O)[C@H]3O[C@@H](n4ccc(=O)[nH]c4=O)[C@H](O)[C@@H]3O)C(=O)N2C)cc1`: half-maximal inhibition in [4] (IC50) required 0.0581 µM.

With `CC[C@H](C)[C@H](N)C(=O)N[C@@H](CC(C)C)C(=O)N[C@@H](CCCNC(=N)N)C(=O)N[C@@H](Cc1c[nH]c2ccccc12)C(=O)N1CCC[C@H]1C(=O)N[C@@H](Cc1c[nH]c2ccccc12)C(=O)N[C@@H](Cc1c[nH]c2ccccc12)C(=O)N1CCC[C@H]1C(=O)N[C@@H](Cc1c[nH]c2ccccc12)C(=O)N[C@@H](CCCNC(=N)N)C(=O)N[C@@H](CCCNC(=N)N)C(=O)N[C@@H](CCCCN)C(=O)O` (H-ILRWPWWPWRRK-OH), the figures for the minimum inhibitory concentration (MIC) in the assay with Pseudomonas aeruginosa and in the assay on Escherichia coli [2] were 19 µg/mL (≈ 10.7 µM) and 38 µg/mL (≈ 21.3 µM), respectively. In assay [1], 50 µM corresponded to half-maximal inhibition (IC50).

Take `CCCCCCCCOC(=O)[C@H](Cc1c[nH]c2ccccc12)NC(=O)[C@@H](N)CCCNC(=N)N`: the figures for the MIC with Pseudomonas aeruginosa and in the assay with Escherichia coli [2] were 40 µg/mL (≈ 84.6 µM) and 31 µg/mL (≈ 65.6 µM), respectively. In [1], this molecule gave an IC50 of more than 1000 µM.

With `CC(=O)N[C@@H](CCCNC(=N)N)C(=O)N[C@@H](CCCNC(=N)N)C(=O)N[C@@H](Cc1c[nH]c2ccccc12)C(=O)N[C@@H](Cc1c[nH]c2ccccc12)C(=O)N[C@@H](CS)C(=O)N[C@@H](Cc1ccccc1)C(=O)O` (Ac-RRWWCF-OH), the minimal inhibitory concentration (MIC) came out at 45 µg/mL (≈ 45.2 µM) with Pseudomonas aeruginosa and 20 µg/mL (≈ 20.1 µM) in the assay on Escherichia coli [2].

For `NC[C@H]1O[C@@H](O[C@@H](Cn2cc(CCCCCO)nn2)[C@H]2O[C@@H](n3ccc(=O)[nH]c3=O)[C@H](O)[C@@H]2O)[C@H](O)[C@@H]1O`, the IC50 in assay [5] was 0.05 µg/mL (≈ 0.0922 µM).

For the molecule `CC(C)C[C@H](NC(=O)[C@H](Cc1ccccc1)NC(=O)[C@@H]1CCCN1C(=O)[C@H](Cc1c[nH]c2ccccc12)NC(=O)[C@H](Cc1c[nH]c2ccccc12)NC(=O)[C@H](Cc1c[nH]c2ccccc12)NC(=O)[C@@H]1CCCN1C(=O)[C@H](Cc1ccccc1)NC(=O)[C@H](CCCNC(=N)N)NC(=O)[C@H](CCCNC(=N)N)NC(=O)[C@@H](N)C(C)C)C(=O)N[C@@H](CCCNC(=N)N)C(=O)N[C@@H](CCCNC(=N)N)C(=O)O`, the MIC was determined as 1 µg/mL (≈ 0.526 µM) in the assay with Pseudomonas aeruginosa and 20 µg/mL (≈ 10.5 µM) in the assay with Escherichia coli [2].

In assay [6], `CSCC[C@H](NC(=O)N[C@@H](Cc1cccc(O)c1)C(=O)O)C(=O)N[C@@H](C(=O)N/C=C1\C[C@@H](O)[C@H](n2ccc(=O)[nH]c2=O)O1)[C@H](C)N(C)C(=O)[C@@H](N)Cc1cccc(O)c1` registered a concentration for half-maximal inhibition (IC50) of 40 µM.

With `CSCC[C@H](NC(=O)[C@H](CCCNC(=N)N)NC(=O)[C@H](Cc1c[nH]c2ccccc12)NC(=O)[C@H](CCC(N)=O)NC(=O)[C@H](Cc1c[nH]c2ccccc12)NC(=O)[C@H](CCCNC(=N)N)NC(=O)[C@H](CCCNC(=N)N)NC(=O)[C@H](CS)NC(=O)[C@H](CCCCN)NC(=O)[C@@H](N)CCC(=O)O)C(=O)N[C@@H](CCCCN)C(=O)N[C@@H](CCCCN)C(=O)N[C@@H](CC(C)C)C(=O)NCC(=O)O` (H-EKCRRWQWRMKKLG-OH), in the assay with Escherichia coli [2], the minimal inhibitory concentration (MIC) stood at 24 µg/mL (≈ 12.6 µM).

In [7], `CO[C@@H]1[C@@H](OC)[C@H](C)O[C@@H](OC(=O)C[C@@H](C)CC(=O)O[C@@H](CCCCCCCCCCC(C)C)CC(=O)O[C@H]2CN(C)[C@@H]([C@H](O[C@@H]3O[C@H](CN)[C@@H](O)[C@H]3O)[C@H]3O[C@@H](n4ccc(=O)[nH]c4=O)[C@H](O)[C@@H]3O)C(=O)N(C)[C@@H]2C(=O)O)[C@@H]1OC` returned a 50% inhibitory concentration (IC50) of 100 µM.

`CCCCCCCCOC(=O)[C@H](Cc1c[nH]c2ccccc12)NC(=O)CN` returned an IC50 in assay [1] of 790 µM.

For `CSCC[C@H](N)C(=O)N[C@H](C(=O)N[C@@H](CCCNC(=N)N)C(=O)N[C@@H](Cc1c[nH]c2ccccc12)C(=O)N[C@H](C(=O)N[C@@H](CC(C)C)C(=O)N[C@@H](Cc1c[nH]c2ccccc12)C(=O)N[C@@H](CC(=O)O)C(=O)N[C@H](C(=O)N[C@@H](CC(C)C)C(=O)N[C@@H](C)C(=O)N[C@@H](Cc1ccccc1)C(=O)N[C@@H](CC(C)C)C(=O)N[C@@H](CC(C)C)C(=O)N[C@@H](CC(C)C)C(=O)O)[C@@H](C)O)[C@@H](C)O)C(C)C` (H-MVRWTLWDTLAFLLL-OH), the midpoint of inhibition in assay [1], the IC50, lay at 0.8 µM.

Take `N=C(N)NCCC[C@H](N)C(=O)N[C@@H](Cc1c[nH]c2ccccc12)C(=O)NCC(=O)NCC(=O)N[C@@H](Cc1c[nH]c2ccccc12)C(=O)O` (H-RWGGW-OH): the IC50 in [1] worked out at 233 µM.

In assay [1], `CC(C)C[C@H](NC(=O)CNC(=O)[C@H](Cc1c[nH]c2ccccc12)NC(=O)[C@@H](N)CCCNC(=N)N)C(=O)NCC(=O)O` (H-RWGLG-OH) returned an IC50 of 274 µM.

`CC(C)C[C@H](NC(=O)CNC(=O)[C@H](Cc1c[nH]c2ccccc12)NC(=O)CN)C(=O)N[C@@H](Cc1c[nH]c2ccccc12)C(=O)O` (H-GWGLW-OH) gave an IC50 in assay [1] of 209 µM.

As for `CC[C@H](C)[C@H](NC(=O)[C@H](Cc1c[nH]c2ccccc12)NC(=O)[C@@H](NC(=O)[C@@H](NC(=O)[C@H](Cc1c[nH]c2ccccc12)NC(=O)[C@H](CCCNC(=N)N)NC(=O)[C@@H](N)CCCNC(=N)N)[C@@H](C)CC)C(C)C)C(=O)N[C@@H](CCCNC(=N)N)C(=O)O` (H-RRWIVWIR-OH), the values for the minimal inhibitory concentration (MIC) in the assay with Pseudomonas aeruginosa and in the assay with Escherichia coli [3] were 8 µg/mL (≈ 6.75 µM) and 2 µg/mL (≈ 1.69 µM), respectively.

`CC(C)[C@H](NC(=O)N[C@H](C(=O)N[C@H](C(=O)NCCCN[C@@H](C[C@H]1O[C@@H](n2ccc(=O)[nH]c2=O)[C@H](O)[C@@H]1O)C(=O)O)[C@@H](O)C(C)C)[C@@H]1CCNC(=N)N1)C(=O)O`: the IC50 in [8] was determined as 2 µM.

As for `O=C(O)c1c(Cl)c(Cl)c(Cl)c(Cl)c1-c1c2cc(Br)c(=O)c(Br)c-2oc2c(Br)c(O)c(Br)cc12`, the 50% inhibitory concentration (IC50) in assay [7] is 850 µM; in assay [1] it was 32 µM.
